Assays:
RG2 cells = test: Fusion peptide cell killing, propidium iodide/FACS viability, RG2 cells; type: cell-based, rat; settings: peptides in complete media for 1 hr, Table 2
Description: (§1) Other experiments were performed using two glioma cell lines, i.e., T98G and RG2. 1×10^6 cells per well were incubated in 6-well plates with peptides in complete media for 1 hr. Cells were removed from the plate using a cell stripper and the percentage of viable cells was determined by staining with propidium iodide and analyzing by fluorescence activated cell sorting (FACS).
(§2) There are 4 conserved amino acid differences between the rat and human CDKI sequence. Both sequences were attached to Tat and tested for cell killing activity in the rat glioma RG2 cells. Also the effect of orientation of the Tat and CDKI domains were tested. RG2 cells were plated on 6 well plates at approximately 70% confluency. Each of the peptides was added to the wells with increasing concentration. After 1 hr, cells were removed from the plates, washed 2× with PBS, stained with propidium iodide and analyzed by FACS for viable cells.
(§3) Cell viability studies were performed by plating the cells under the same conditions as the uptake studies. Cells were incubated with fluorescent peptides for 1 hr at 37° C. The cells were removed from the plate using cell striper. They were labeled with propidium iodide and fluorescein-AM. Percent PI positive cells were determined by FACS.
(§4) The cytotoxicity of the chimeric peptides was characterized using a cell viability assay. Peptides were added to cells at a fixed concentration. After a 30-minute incubation, cells were removed from the plate, stained with propidium iodide and the % positive cells were determined by FACS (fluorescent activated cell scanning). The test conditions were Tat, ANT, Tat-P14ARF, ANT-P14ARF and P14ARF. T98G cells were tested along with RG2 cells and A172 cells.

[1] = as above; type: cell-based, rat; settings: peptides in complete media for 1 hr, Table 2
Description: as §1, §2, §3, §4

[2] = test system: endothelial cells and smooth muscle cells of rat cerebral arteries; test: Uptake of fluorescent peptides by pressure-mounted rat cerebral arteries; type: cell-based; settings: intraluminal perfusion of fluorescent peptide
Description: Tat-P16 peptides were prepared and labeled with fluorescein for use in uptake studies using intact blood vessels isolated from rat brain. Blood vessels were dissected from rat brain and stabilized in an isolated perfusion system in which vessels were attached on either end to catheters and placed under physiological pressure. Following a 10 minute perfusion of the isolated vessels with flurorescent Tat-P16 peptide (1 μM), vessels were examined for uptake of the peptides. […] Within the endothelial cells, the labeled peptides were seen to be localized to the cell nuclei, further confirming uptake of the peptides by the cells.
The peptides are fairly labile in the media and approximately 50% are degraded upon incubation at 37° C. in complete media (qualitative analysis by PAGE) after 1 hour. […] Uptake of these peptides and cell killing activity was tested in a 3 dimensional organ culture using rat cerebral arteries cultured under physiological pressure and flow. A segment of the rat cerebral artery is surgically removed and placed in ringer's solution. Using a surgical stereoscope, the blood vessel is tied at either end to two cannulas on a teflon stage. Ringer's solution is perfused through the lumen of the vessel at a constant rate that maintains physiologic hydrostatic pressure. The fluorescent peptide was introduced intraluminally by perfusing a 1 μM solution of peptide through the lumen over a 10 minute period.
Rats were anesthetized by intraperitoneal injection of pentobarbital sodium (160 mg/kg) and killed by decapitation. The brain was removed and placed in an ice-cold oxygenated physiological cerebrospinal fluid (PCSF, see below for composition). Cerebellar arteries were isolated and mounted in an arteriograph as described previously (Knot and Nelson 1998). The arteriograph was placed on an inverted microscope and the artery was visualized with a monochrome CCD camera coupled to a calibrated video caliper system to measure arterial diameter. The arteries were slowly pressurized to 70 mmHg under no flow conditions using a pressure servo-null system (Living Systems Inc., Burlington Vt.), and warmed to 37° C. while being continuously superfused (5 ml/min) with PCSF bubbled with 21% O2, 5% CO2, 74% N2 (pH 7.35-7.40 in the bath). […] Myogenic tone is calculated by the following equation: Myogenic tone=(Dp−Da)/Dp×100
In some experiments, the arterial segments were denuded of endothelium by passing an air bubble through the lumen, thus exposing the smooth muscle cells to luminally administered peptides. Constriction to pressure and 60 mM KCl and dilation of arteries with myogenic tone to 16 mM KCl were used as benchmarks of functional arteries. Peptide containing PCSF was perfused intraluminally at an inlet pressure of 70 mmHg with the outlet open, for 20 min and then perfused with normal PCSF. This procedure ensures a 20 min of exposure of the arteries to the peptide.

rat cerebral arteries = test: Cell viability staining of arteries (propidium iodide, H3334) after peptide; type: cell-based; settings: after treatment with peptide
Description: No PI statined smooth muscle cell nuclei were observed.
Effect of peptide on endothelial and smooth muscle function was evaluated by histamine (0.3 and 1 μM) and bradykinin (0.5 μM) (endothelium-dependent vasodilators) and 16 and 60 mM KCl (results in dilation and constriction of arteries by hyperpolarizing and depolarizing smooth muscle, respectively). These drug solutions were added to the superfusate and applied to the arteries extraluminally for 10 to 15 min before and after intraluminal perfusion with peptides. Effects of these agents were expressed as percent change in myogenic tone (decrease for dilators and increase for constrictors). Experiments were concluded by exposing the arteries to calcium free PCSF to obtain the passive diameter. Cell viability was determined by adding H3334 (Hoechst viability stain, final concentration 1 μM) and propidium iodide (final concentration 1 μM) to the arteriograph after the peptide incubation. Fluorescent micrographs were taken of the vessels after incubation with peptides and following addition of the vital stains using Till Photonics imaging system (Martinsried, Germany).

A172 cells = test: Fluorescein peptide uptake by A172 cells, fluorescence microscopy; type: cell-based, human; settings: 30 uM peptide, 1 hr, 37° C., serum containing media
Description: For fluorescent microscopy studies cells were plated on 2 chamber cover slips at a density of 1×10^4 cells/chamber. Cells were incubated with […] peptide for 30 minutes in completed media, washed with PBS 3× and imaged using a Nikon Axiophot inverted fluorescent microscope. Images were taken using a Spot CCD camera.
Synthetic peptides derived from HIV Tat (Tat) and the Drosophila antennaepedia homeodomain (ANT) were tested for cell uptake by A172 cells (human glioblastomas). The peptides were labeled at the N-terminus with fluorescein. Cells were incubated with 30 uM peptide at 37° C. in serum containing media. Fluorescent micrographs were taken after 1 hr incubation at 37° C. […] The size of the peptide was increased by added an Mdm-2 binding domain derived from P14ARF. This domain was added to the C-terminus of the Tat and ANT peptides. The P14ARF domain was also placed at the N-terminus followed by the Tat peptide. All the peptides were labeled at the N-terminus with fluorescein and cell incubations similar to the Tat and ANT peptides were tested for cellular uptake. […] Both the bright field and fluorescent micrographs show altered cell morphology.

For `C[C@H](N)C(=O)NCC(=O)NCC(=O)NCC(=O)N[C@@H](Cc1ccc(O)cc1)C(=O)NCC(=O)N[C@@H](CCCNC(=N)N)C(=O)N[C@@H](CCCCN)C(=O)N[C@@H](CCCCN)C(=O)N[C@@H](CCCNC(=N)N)C(=O)N[C@@H](CCCNC(=N)N)C(=O)N[C@@H](CCC(N)=O)C(=O)N[C@@H](CCCNC(=N)N)C(=O)N[C@@H](CCCNC(=N)N)C(=O)N[C@@H](CCCNC(=N)N)C(=O)O` [Tat], the “% Viable” value (RG2 cells) was “ineffective”, the viability [1] was 94% and the “labeling/uptake by endothelial cells” value [2] was “selectively labeling the endothelial nuclei”. For the same molecule, the “labeling/uptake by smooth muscle cells” value [2] was “did not label the smooth muscle cells”, the “propidium iodide staining of blood vessels” value (rat cerebral arteries) was “no PI stained nuclei” and the “staining pattern (cell uptake)” value (A172 cells) was “intracellular punctate”.

Source: US7339042B2, “Gene delivery to tumors” (University of Florida Research Foundation, Inc., priority 2003, dated 2008)
